Source: article PMC11876601 (Molecular Systems Biology, 2025)
Where two headings read alike, the source gives them in different places.

Experiments:
[1] = test system: PRKAA1; parameters: method as in Klaeger et al. (2017); conditions: lysate 4 cell line mix (Colo205, K-562, MV-4-11, and SK-N-BE(2)), Kinobeads y, ref Klaeger et al. (2017); cited from earlier work
[2] = test system: ACVR1; parameters: method as in Klaeger et al. (2017); conditions: lysate 4 cell line mix (Colo205, K-562, MV-4-11, and SK-N-BE(2)), Kinobeads y, ref Klaeger et al. (2017); cited from earlier work
[3] = test system: MAP4K2; parameters: method as in Klaeger et al. (2017); conditions: MAP4K2, 4 cell line mix lysate, Kinobeads y, ref Klaeger et al. (2017); cited from earlier work
[4] = test system: MAP4K5; parameters: method as in Klaeger et al. (2017); conditions: MAP4K5, 4 cell line mix lysate, Kinobeads y, ref Klaeger et al. (2017); cited from earlier work
[5] = test system: Capan-1 cells; assay: Drug combination viability screen (ATPlite, 72 h); format: cell-based, human; parameters: AUC: unit not given beside the values; Reponse: unit not given here; conditions: for EC50: Homo sapiens, CAPAN-1;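 on AUC: area under vehicle-normalized viability curve scaled 0 to 100 percent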;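 on Curve bottom: fraction of vehicle control viability from four-parameter log-logistic fit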
Method: (§1) Cell viability was assessed by measuring ATP levels to indicate metabolic activity.
(§2) Afterward, small amounts were transferred to 384-well intermediate plates (Greiner Bio-One GmbH, Germany). […] For drug combination screening, 1000 to 5000 cells were seeded into 384-well plates (CulturPlate™, Perkin Elmer, MA, USA) using a Multidrop™ Combi Reagent Dispenser (Thermo Scientific, MA, USA) in 50 µl medium per well 24 h prior to drug treatment (seeding densities see Appendix Table S1). […] The final DMSO concentration in each well was 0.2%. […] Eight wells per plate without library drug served as negative controls, and sixteen wells per plate containing 5 µM Staurosporine served as positive controls. Control plates not containing any drug were used to correct for incubation effects, and data quality was assessed by calculation of Z-prime of positive and negative controls according to1 Z-prime=1−3SDpos+3SDneg/[…] where SD is the standard deviation. […] Dose–response curves from the experimental and hypothetical data were compared, and shifts in AUC were used to describe combination effects (AUC∆ = AUChypothetical − AUCexperimental). […] Only combinations with R^2 > 0.8 in both conditions were considered in the synergy analysis.

[6] = test system: Dan-G cells; assay: Drug combination viability screen (ATPlite, 72 h); format: cell-based, human; parameters: AUC: unit not given beside the values; Reponse: unit not given here; conditions: for EC50: Homo sapiens;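 on AUC: area under vehicle-normalized viability curve scaled 0 to 100 percent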;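 on Curve bottom: fraction of vehicle control viability from four-parameter log-logistic fit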
Method: as §1, §2

[7] = test system: HPDE (immortalized pancreatic duct cell line); assay: Drug combination viability screen (ATPlite, 72 h); format: cell-based, human; conditions: HPDE; for EC50: Homo sapiens;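 on AUC: area under vehicle-normalized viability curve scaled 0 to 100 percent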;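 on Curve bottom: fraction of vehicle control viability from four-parameter log-logistic fit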
Method: as §1, §2

[8] = test system: PSN-1 cells; assay: Drug combination viability screen (ATPlite, 72 h); format: cell-based, human; conditions: for EC50: Homo sapiens, PSN1;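 on AUC: area under vehicle-normalized viability curve scaled 0 to 100 percent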;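 on Curve bottom: fraction of vehicle control viability from four-parameter log-logistic fit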
Method: as §1, §2

[9] = test system: PTK2; parameters: method as in Reinecke et al. (2023); conditions: PTK2, 5 cell line mix lysate, Kinobeads ε, ref Reinecke et al. (2023), cited from earlier work
[10] = test system: CLK4; parameters: method as in Reinecke et al. (2023); conditions: CLK4, 5 cell line mix lysate, Kinobeads ε, ref Reinecke et al. (2023), cited from earlier work
[11] = test system: TAOK3; parameters: method as in Reinecke et al. (2023); conditions: TAOK3, 5 cell line mix lysate, Kinobeads ε, ref Reinecke et al. (2023), cited from earlier work

C[C@]12O[C@H](C[C@]1(O)CO)n1c3ccccc3c3c4c(c5c6ccccc6n2c5c31)CNC4=O [Lestaurtinib]
EC50 [1]: 1320 nM | EC50 [2]: […] | EC50 [3]: […] | EC50 [4]: […]

Nc1ccn([C@@H]2O[C@H](CO)[C@@H](O)C2(F)F)c(=O)n1 [GEM, Gemcitabine]
Reponse ([5]; Capan-1, R1, 13.72 nM): 1419520 | Reponse ([5]; Capan-1, R1, 41.15 nM): 1052200 | Reponse ([5]; Capan-1, R1, […] nM): 1039880 | Reponse ([5]; Capan-1, R1, 370.37 nM): 891520 | Reponse ([5]; Capan-1, R1, 1111.11 nM): 819880 | Reponse ([5]; Capan-1, R1, 3333.33 nM): 826400 | Reponse ([5]; Capan-1, R1, 10000 nM): 882520 | Reponse ([5]; Capan-1, R2, 13.72 nM): 1725080 | Reponse ([5]; Capan-1, R2, 41.15 nM): 1554080 | Reponse ([5]; Capan-1, R2, […] nM): 1198840 | Reponse ([5]; Capan-1, R2, 370.37 nM): 1201400 | Reponse ([5]; Capan-1, R2, 1111.11 nM): 991280 | Reponse ([5]; Capan-1, R2, 3333.33 nM): 798760 | Reponse ([5]; Capan-1, R2, 10000 nM): 1054200 | Curve bottom ([5]; Capan-1, GEM curve fit): 0.16 | Curve effect size ([5]; Capan-1, GEM curve fit): 0.84 | Curve slope ([5]; Capan-1, GEM curve fit): 1.86 | Curve top ([5]; Capan-1, GEM curve fit): 1.03 | AUC ([5]; Capan-1, GEM curve fit, in %): 31.71 | EC50 ([5]; read-out: EC50): 1.26 nM | EC50 ([5]; read-out: pEC50 (converted)): 1.26 nM | Reponse ([6]; Dan-G, R1, 13.72 nM): 414760 | Reponse ([6]; Dan-G, R1, 41.15 nM): 446720 | Reponse ([6]; Dan-G, R1, […] nM): 403560 | Reponse ([6]; Dan-G, R1, 370.37 nM): 418200 | Reponse ([6]; Dan-G, R1, 1111.11 nM): 322600 | Reponse ([6]; Dan-G, R1, 3333.33 nM): 330080 | Reponse ([6]; Dan-G, R1, 10000 nM): 365160 | Reponse ([6]; Dan-G, R2, 13.72 nM): 688800 | Reponse ([6]; Dan-G, R2, 41.15 nM): 616960 | Reponse ([6]; Dan-G, R2, […] nM): 613120 | Reponse ([6]; Dan-G, R2, 370.37 nM): 664240 | Reponse ([6]; Dan-G, R2, 1111.11 nM): 563000 | Reponse ([6]; Dan-G, R2, 3333.33 nM): 536360 | Reponse ([6]; Dan-G, R2, 10000 nM): 535080 | Curve bottom ([6]; Dan-G, GEM curve fit): 0.11 | Curve effect size ([6]; Dan-G, GEM curve fit): 0.89 | Curve slope ([6]; Dan-G, GEM curve fit): 3.23 | Curve top ([6]; Dan-G, GEM curve fit): 0.99 | AUC ([6]; Dan-G, GEM curve fit, in %): 25.98 | EC50 ([6]; read-out: EC50): 1.1 nM | EC50 ([6]; read-out: pEC50 (converted)): 1.1 nM | Reponse ([7]; R1, 13.72 nM): 2430360 | Reponse ([7]; R1, 41.15 nM): 2458400 | Reponse ([7]; R1, […] nM): 2746800 | Reponse ([7]; R1, 370.37 nM): 2410520 | Reponse ([7]; R1, 1111.11 nM): 2265000 | Reponse ([7]; R1, 3333.33 nM): 1887440 | Reponse ([7]; R1, 10000 nM): 1259640 | Reponse ([7]; R2, 13.72 nM): 3059000 | Reponse ([7]; R2, 41.15 nM): 2844720 | Reponse ([7]; R2, […] nM): 2708840 | Reponse ([7]; R2, 370.37 nM): 2516400 | Reponse ([7]; R2, 1111.11 nM): 2343080 | Reponse ([7]; R2, 3333.33 nM): 1957840 | Reponse ([7]; R2, 10000 nM): 1504480 | Curve bottom ([7]; GEM curve fit): 0.27 | Curve effect size ([7]; GEM curve fit): 0.73 | Curve slope ([7]; GEM curve fit): 1.67 | Curve top ([7]; GEM curve fit): 1.00 | AUC ([7]; GEM curve fit, in %): 48.78 | EC50 ([7]; read-out: EC50): 4.34 nM | EC50 ([7]; read-out: pEC50 (converted)): 4.37 nM | EC50 ([8]; read-out: EC50): 3.44 nM | EC50 ([8]; read-out: pEC50 (converted)): 3.47 nM | Reponse ([8]; PSN-1, R1, 13.72 nM): 1225440 | Reponse ([8]; PSN-1, R1, 41.15 nM): 969400 | Reponse ([8]; PSN-1, R1, […] nM): 806840 | Reponse ([8]; PSN-1, R1, 370.37 nM): 818640 | Reponse ([8]; PSN-1, R1, 1111.11 nM): 786440 | Reponse ([8]; PSN-1, R1, 3333.33 nM): 785720 | Reponse ([8]; PSN-1, R1, 10000 nM): 723120 | Reponse ([8]; PSN-1, replicate R2, dose 13.72 nM, raw signal): 1542400 | Reponse ([8]; PSN-1, replicate R2, dose 41.15 nM, raw signal): 1210080 | Reponse ([8]; PSN-1, replicate R2, dose 123.46 nM, raw signal): 1089000 | Reponse ([8]; PSN-1, replicate R2, dose 370.37 nM, raw signal): 1103640 | Reponse ([8]; PSN-1, replicate R2, dose 1111.11 nM, raw signal): 1004960 | Reponse ([8]; PSN-1, replicate R2, dose 3333.33 nM, raw signal): 1071400 | Reponse ([8]; PSN-1, replicate R2, dose 10000 nM, raw signal): 1052080 | AUC ([8]; PSN-1, GEM curve fit): 35.4% | Curve bottom ([8]; PSN-1, GEM curve fit): 0.11 | Curve effect size ([8]; PSN-1, GEM curve fit): 0.89 | Curve slope ([8]; PSN-1, GEM curve fit): 2.16 | Curve top ([8]; PSN-1, GEM curve fit): 1.03

COc1cc(N2CCC(N3CCN(C)CC3)CC2)ccc1Nc1ncc(Cl)c(Nc2ccccc2P(C)(C)=O)n1 [Brigatinib]
EC50 [9]: 12.6 nM | pKDapp [9]: 8.29 | Kd ([9]; read-out: KDapp): 5.15 nM | EC50 [10]: 49.2 nM | pKDapp [10]: 7.38 | Kd ([10]; read-out: KDapp): 41.6 nM | EC50 [11]: 690 nM | pKDapp [11]: 6.27 | Kd ([11]; read-out: KDapp): 534 nM
